Patent US10645928B2, “Pesticidally active polycyclic derivatives with sulfur containing substituents” (Syngenta Participations AG, priority 2014, dated 2020)

How the values were obtained:
Type in all cases: in vivo
[1] = tested on: Spodoptera littoralis (Egyptian Cotton Leaf Worm); experiment: Example B18: Spodoptera littoralis, compound in agar absorbed by lettuce roots, mortality, anti-feedant effect and growth inhibition; conditions: 144 h, test rate of 12.5 ppm, uptake by lettuce roots, Spodoptera eggs, 6 days after infestation, read-out: effect in at least one of the three categories (mortality, anti-feeding, or growth inhibition)
Source text: Test compounds were applied by pipette from 10,000 ppm DMSO stock solutions into 24-well plates and mixed with agar. Lettuce seeds were placed onto the agar and the multi well plate was closed by another plate which contained also agar. After 7 days the compound was absorbed by the roots and the lettuce grew into the lid plate. The lettuce leaves were then cut off into the lid plate. Spodoptera eggs were pipetted through a plastic stencil onto a humid gel blotting paper and the lid plate was closed with it. The samples were assessed for mortality, anti-feedant effect and growth inhibition in comparison to untreated samples 6 days after infestation.

[2] = tested on: Spodoptera littoralis (Egyptian Cotton Leaf Worm); experiment: Example B20: Spodoptera littoralis, compound in agar absorbed by lettuce roots, mortality; conditions: 144 h, test rate of 12.5 ppm, uptake by lettuce roots, Spodoptera eggs, 6 days after infestation
Source text: Test compounds were applied by pipette prepared from 10,000 ppm DMSO stock solutions into 24-well plates and mixed with agar. Lettuce seeds were placed onto the agar and the multi well plate was closed by another plate which contained also agar. After 7 days the compound was absorbed by the roots and the lettuce grew into the lid plate. The lettuce leaves were then cut off into the lid plate.
Spodoptera eggs were pipetted through a plastic stencil onto a humid gel blotting paper and the lid plate was closed with it. The samples were assessed for mortality 6 days after infestation.

[3] = tested on: Plutella xylostella (Diamond Back Moth); experiment: Example B13: Plutella xylostella, treated artificial diet, mortality and growth inhibition; conditions: 120 h, application rate of 200 ppm, L2 larvae, 5 days after infestation, read-out: effect in at least one of the two categories (mortality or growth inhibition)
Description: 24-well microtiter plates with artificial diet were treated with aqueous test solutions prepared from 10,000 ppm DMSO stock solutions by pipetting. After drying, the plates were infested with L2 larvae (10 to 15 per well). The samples were assessed for mortality and growth inhibition in comparison to untreated samples 5 days after infestation.

[4] = tested on: Spodoptera littoralis (Egyptian Cotton Leaf Worm); experiment: Example B17: Spodoptera littoralis, sprayed cotton leaf discs, mortality, anti-feeding effect and growth inhibition; conditions: foliar, 72 h, application rate of 200 ppm, L1 larvae, 3 days after infestation, read-out: control (at least one of mortality, anti-feedant effect, growth inhibition)
Description: Cotton leaf discs were placed onto agar in 24-well microtiter plates and sprayed with aqueous test solutions prepared from 10,000 ppm DMSO stock solutions. After drying the leaf discs were infested with five L1 larvae. The samples were assessed for mortality, anti-feeding effect, and growth inhibition in comparison to untreated samples 3 days after infestation. Control of Spodoptera littoralis by a test sample is given when at least one of the categories mortality, anti-feedant effect, and growth inhibition is higher than the untreated sample.

[5] = tested on: Frankliniella occidentalis (Western Flower Thrips); experiment: Example B7: Frankliniella occidentalis, sprayed sunflower leaf discs, mortality; conditions: foliar, 168 h, application rate of 200 ppm, population of mixed ages, 7 days after infestation
Description: Sunflower leaf discs were placed on agar in 24-well microtiter plates and sprayed with aqueous test solutions prepared from 10,000 DMSO stock solutions. After drying the leaf discs were infested with a Frankliniella population of mixed ages. The samples were assessed for mortality 7 days after infestation.

[6] = tested on: Spodoptera littoralis (Egyptian Cotton Leaf Worm); experiment: Example B16: Spodoptera littoralis, sprayed cotton leaf discs, mortality; conditions: foliar, 72 h, application rate of 200 ppm, L1 larvae, 3 days after infestation
Description: Cotton leaf discs were placed onto agar in 24-well microtiter plates and sprayed with aqueous test solutions prepared from 10,000 ppm DMSO stock solutions. After drying the leaf discs were infested with five L1 larvae. The samples were assessed for mortality 3 days after infestation.

[7] = tested on: Diabrotica balteata (Corn Root Worm); experiment: Example B2: Diabrotica balteata, sprayed maize sprouts, mortality and growth inhibition; conditions: 96 h, application rate of 200 ppm, L2 larvae, 4 days after infestation, read-out: effect in at least one of the two categories (mortality or growth inhibition)
Description: Maize sprouts placed onto an agar layer in 24-well microtiter plates were treated with aqueous test solutions prepared from 10,000 ppm DMSO stock solutions by spraying. After drying, the plates were infested with L2 larvae (6 to 10 per well). The samples were assessed for mortality and growth inhibition in comparison to untreated samples 4 days after infestation.

[8] = tested on: Myzus persicae (Green Peach Aphid); experiment: Example B8: Myzus persicae, sprayed sunflower leaf discs, mortality; conditions: foliar, 144 h, application rate of 200 ppm, leaf disc spray, aphid population of mixed ages, 6 days after infestation
Description: Sunflower leaf discs were placed onto agar in a 24-well microtiter plate and sprayed with aqueous test solutions prepared from 10,000 ppm DMSO stock solutions. After drying, the leaf discs were infested with an aphid population of mixed ages. The samples were assessed for mortality 6 days after infestation.

[9] = tested on: Diabrotica balteata (Corn Root Worm); experiment: Example B3: Diabrotica balteata, sprayed maize sprouts, mortality; conditions: 96 h, application rate of 200 ppm, L2 larvae, 4 days after infestation
Description: Maize sprouts placed onto an agar layer in 24-well microtiter plates were treated with aqueous test solutions prepared from 10,000 ppm DMSO stock solutions by spraying. After drying, the plates were infested with L2 larvae (6 to 10 per well). The samples were assessed for mortality 4 days after infestation.

[10] = tested on: Spodoptera littoralis (Egyptian Cotton Leaf Worm); experiment: Example B19: Spodoptera littoralis, compound in agar absorbed by lettuce roots, anti-feedant effect; conditions: 144 h, test rate of 12.5 ppm, uptake by lettuce roots, Spodoptera eggs, 6 days after infestation, read-out: anti-feeding
Source text: Test compounds were applied by pipette prepared from 10,000 ppm DMSO stock solutions into 24-well plates and mixed with agar. Lettuce seeds were placed onto the agar and the multi well plate was closed by another plate which contained also agar. After 7 days the compound was absorbed by the roots and the lettuce grew into the lid plate. The lettuce leaves were then cut off into the lid plate. Spodoptera eggs were pipetted through a plastic stencil onto a humid gel blotting paper and the lid plate was closed with it. The samples were assessed for anti-feedant effect in comparison to untreated samples 6 days after infestation.

[11] = tested on: Spodoptera littoralis (Egyptian Cotton Leaf Worm); experiment: Example B14: Spodoptera littoralis, sprayed cotton leaf discs, anti-feeding effect; conditions: foliar, 72 h, application rate of 200 ppm, L1 larvae, 3 days after infestation
Description: Cotton leaf discs were placed onto agar in 24-well microtiter plates and sprayed with aqueous test solutions prepared from 10,000 ppm DMSO stock solutions. After drying the leaf discs were infested with five L1 larvae. The samples were assessed for anti-feeding effect in comparison to untreated samples 3 days after infestation. Control of Spodoptera littoralis by a test sample is given when the anti-feedant effect is higher than the untreated sample.

[12] = tested on: Euschistus heros (Neotropical Brown Stink Bug); experiment: Example B5: Euschistus heros, sprayed soybean leaves, mortality; conditions: 120 h, application rate of 200 ppm, N2 nymphs, 5 days after infestation
Description: Soybean leaves on agar in 24-well microtiter plates were sprayed with aqueous test solutions prepared from 10,000 ppm DMSO stock solutions. After drying the leaves were infested with N2 nymphs. The samples were assessed for mortality 5 days after infestation.

[13] = tested on: Euschistus heros (Neotropical Brown Stink Bug); experiment: Example B6: Euschistus heros, sprayed soybean leaves, mortality and growth inhibition; conditions: 120 h, application rate of 200 ppm, N2 nymphs, 5 days after infestation, read-out: effect in at least one of the two categories (mortality or growth inhibition)
Description: Soybean leaves on agar in 24-well microtiter plates were sprayed with aqueous test solutions prepared from 10,000 ppm DMSO stock solutions. After drying the leaves were infested with N2 nymphs. The samples were assessed for mortality and growth inhibition in comparison to untreated samples 5 days after infestation.

[14] = tested on: Plutella xylostella (Diamond Back Moth); experiment: Example B12: Plutella xylostella, treated artificial diet, mortality; conditions: 120 h, application rate of 200 ppm, L2 larvae, 5 days after infestation
Description: 24-well microtiter plates with artificial diet were treated with aqueous test solutions prepared from 10,000 ppm DMSO stock solutions by pipetting. After drying, the plates were infested with L2 larvae (10 to 15 per well). The samples were assessed for mortality 5 days after infestation.

[15] = tested on: Aedes aegypti (Yellow Fever Mosquito); experiment: Example B23: Aedes aegypti, dry deposits in 12 well tissue culture plates, control; conditions: application rate of 200 ppm in ethanol, adult females, after 48 h and/or 24 h
Description: Test solutions, at an application rate of 200 ppm in ethanol, were applied to 12 well tissue culture plates. Once the deposits were dry, five, two to five day old adult female Aedes aegypti were added to each well, and sustained with a 10% sucrose solution in a cotton wool plug. Assessment of knockdown was made one hour after introduction, and mortality was assessed at 24 and 48 hours after introduction.

[16] = tested on: Spodoptera littoralis (Egyptian Cotton Leaf Worm); experiment: Example B15: Spodoptera littoralis, sprayed cotton leaf discs, growth inhibition; conditions: foliar, 72 h, application rate of 200 ppm, L1 larvae, 3 days after infestation, read-out: control (growth inhibition)
Description: Cotton leaf discs were placed onto agar in 24-well microtiter plates and sprayed with aqueous test solutions prepared from 10,000 ppm DMSO stock solutions. After drying the leaf discs were infested with five L1 larvae. The samples were assessed for growth inhibition in comparison to untreated samples 3 days after infestation. Control of Spodoptera littoralis by a test sample is given when the growth inhibition is higher than the untreated sample.

[17] = tested on: Plutella xylostella (Diamond Back Moth); experiment: Example B10: Plutella xylostella, treated artificial diet, growth inhibition; conditions: 120 h, application rate of 200 ppm, L2 larvae, 5 days after infestation
Description: 24-well microtiter plates with artificial diet were treated with aqueous test solutions prepared from 10,000 ppm DMSO stock solutions by pipetting. After drying, the plates were infested with L2 larvae (10 to 15 per well). The samples were assessed for growth inhibition in comparison to untreated samples 5 days after infestation. Control of Plutella xylostella by a test sample is given when the growth inhibition is higher than the untreated sample.

[18] = tested on: Bemisia tabaci (Cotton White Fly); experiment: Example B1: Bemisia tabaci, sprayed cotton leaf discs, mortality; conditions: foliar, 144 h, application rate of 200 ppm, adult white flies, 6 days after incubation
Description: Cotton leaf discs were placed on agar in 24-well microtiter plates and sprayed with aqueous test solutions prepared from 10,000 ppm DMSO stock solutions. After drying the leaf discs were infested with adult white flies. The samples were checked for mortality 6 days after incubation.

CCS(=O)(=O)c1cc(-c2ccc(F)cc2F)cnc1-c1cn2cnc(C(F)(F)F)cc2n1 [Compound P11]
≥ 80%: percent effect (mortality, anti-feeding or growth inhibition) at 12.5 ppm [1] | mortality at 12.5 ppm [2] | percent effect (mortality or growth inhibition) at 200 ppm [3] | percent control (mortality, anti-feedant effect or growth inhibition) at 200 ppm [4] | mortality at 200 ppm [5] | mortality at 200 ppm [6] | percent effect (mortality or growth inhibition) at 200 ppm [7] | mortality at 200 ppm [8] | mortality at 200 ppm [9] | pest or weed control at 12.5 ppm [10] | pest or weed control at 200 ppm [11] | mortality at 200 ppm [12] | percent effect (mortality or growth inhibition) at 200 ppm [13] | mortality at 200 ppm [14]

CCS(=O)(=O)c1cc(-c2cccc(SC)c2)cnc1-c1cn2cnc(C(F)(F)F)cc2n1 [Compound P9]
≥ 80%: pest or weed control at 200 ppm [15] | percent effect (mortality or growth inhibition) at 200 ppm [3] | percent control (mortality, anti-feedant effect or growth inhibition) at 200 ppm [4] | mortality at 200 ppm [6] | percent effect (mortality or growth inhibition) at 200 ppm [7] | mortality at 200 ppm [9] | pest or weed control at 200 ppm [11] | inhibition at 200 ppm [16] | mortality at 200 ppm [12] | percent effect (mortality or growth inhibition) at 200 ppm [13] | mortality at 200 ppm [14] | inhibition at 200 ppm [17]

CCS(=O)(=O)c1cc(-n2ccc(C(F)(F)F)n2)cnc1-c1cn2cnc(C(F)(F)F)cc2n1 [Compound P4, 2-[3-ethylsulfonyl-5-[3-(trifluoromethyl)pyrazol-1-yl]-2-pyridyl]-7-(trifluoromethyl)imidazo[1,2-c]pyrimidine]
≥ 80%: percent effect (mortality, anti-feeding or growth inhibition) at 12.5 ppm [1] | mortality at 12.5 ppm [2] | pest or weed control at 200 ppm [15] | percent effect (mortality or growth inhibition) at 200 ppm [3] | percent control (mortality, anti-feedant effect or growth inhibition) at 200 ppm [4] | mortality at 200 ppm [6] | percent effect (mortality or growth inhibition) at 200 ppm [7] | mortality at 200 ppm [9] | pest or weed control at 12.5 ppm [10] | pest or weed control at 200 ppm [11] | mortality at 200 ppm [12] | percent effect (mortality or growth inhibition) at 200 ppm [13] | mortality at 200 ppm [14] | mortality at 200 ppm [18]

CCS(=O)(=O)c1cc(-c2ccc(Cl)cc2)cnc1-c1cn2cnc(C(F)(F)C(F)(F)F)cc2n1 [Compound P15]
≥ 80%: percent effect (mortality, anti-feeding or growth inhibition) at 12.5 ppm [1] | mortality at 12.5 ppm [2] | percent effect (mortality or growth inhibition) at 200 ppm [3] | percent control (mortality, anti-feedant effect or growth inhibition) at 200 ppm [4] | mortality at 200 ppm [5] | mortality at 200 ppm [6] | percent effect (mortality or growth inhibition) at 200 ppm [7] | pest or weed control at 12.5 ppm [10] | pest or weed control at 200 ppm [11] | mortality at 200 ppm [12] | percent effect (mortality or growth inhibition) at 200 ppm [13] | mortality at 200 ppm [14] | mortality at 200 ppm [18]
